Measured values taken from patent US12139487B2, “Compounds and uses thereof” (Foghorn Therapeutics Inc., priority 2022, dated 2024).

Experiments:
BRM = biological target: T1, BRM (Homo sapiens, UniProt P51531); experiment: ATPase catalytic activity assay (ADP-Glo), BRM; assay type: biochemical; details: Table 10; for Ratio (BRG1 IC50 (μM) divided by BRM IC50 (μM)): ATPase assay, selectivity BRG1/BRM; for IC50: ATPase catalytic activity assay (ADP-Glo)
T1 construct: made in house; host or cells: High Five insect cells
In short: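 Reaction holds 30 nM BRM, 20 nM salmon sperm DNA and 400 μM ATP in 20 mM Tris pH 8, 20 mM MgCl2, 50 mM NaCl, 0.1% Tween-20, 1 mM DTT. Incubated 1 h at room temperature. ADP formed is detected by ADP-Glo luminescence.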

BRG-1 = biological target: T2, BRG-1 (Homo sapiens, UniProt P51532); experiment: ATPase catalytic activity assay (ADP-Glo), BRG-1; assay type: biochemical; details: Table 10, read-out: BRG1 IC50
T2 construct: made in house; host or cells: High Five insect cells
In short: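 Biochemical ADP-Glo assay, BRG-1. Post-reaction: ATP depletion reagent, 40 min RT; ADP→ATP conversion/detection reagent, 60 min RT; luminescence read on plate luminometer.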

T1 sequence (P51531 whole entry): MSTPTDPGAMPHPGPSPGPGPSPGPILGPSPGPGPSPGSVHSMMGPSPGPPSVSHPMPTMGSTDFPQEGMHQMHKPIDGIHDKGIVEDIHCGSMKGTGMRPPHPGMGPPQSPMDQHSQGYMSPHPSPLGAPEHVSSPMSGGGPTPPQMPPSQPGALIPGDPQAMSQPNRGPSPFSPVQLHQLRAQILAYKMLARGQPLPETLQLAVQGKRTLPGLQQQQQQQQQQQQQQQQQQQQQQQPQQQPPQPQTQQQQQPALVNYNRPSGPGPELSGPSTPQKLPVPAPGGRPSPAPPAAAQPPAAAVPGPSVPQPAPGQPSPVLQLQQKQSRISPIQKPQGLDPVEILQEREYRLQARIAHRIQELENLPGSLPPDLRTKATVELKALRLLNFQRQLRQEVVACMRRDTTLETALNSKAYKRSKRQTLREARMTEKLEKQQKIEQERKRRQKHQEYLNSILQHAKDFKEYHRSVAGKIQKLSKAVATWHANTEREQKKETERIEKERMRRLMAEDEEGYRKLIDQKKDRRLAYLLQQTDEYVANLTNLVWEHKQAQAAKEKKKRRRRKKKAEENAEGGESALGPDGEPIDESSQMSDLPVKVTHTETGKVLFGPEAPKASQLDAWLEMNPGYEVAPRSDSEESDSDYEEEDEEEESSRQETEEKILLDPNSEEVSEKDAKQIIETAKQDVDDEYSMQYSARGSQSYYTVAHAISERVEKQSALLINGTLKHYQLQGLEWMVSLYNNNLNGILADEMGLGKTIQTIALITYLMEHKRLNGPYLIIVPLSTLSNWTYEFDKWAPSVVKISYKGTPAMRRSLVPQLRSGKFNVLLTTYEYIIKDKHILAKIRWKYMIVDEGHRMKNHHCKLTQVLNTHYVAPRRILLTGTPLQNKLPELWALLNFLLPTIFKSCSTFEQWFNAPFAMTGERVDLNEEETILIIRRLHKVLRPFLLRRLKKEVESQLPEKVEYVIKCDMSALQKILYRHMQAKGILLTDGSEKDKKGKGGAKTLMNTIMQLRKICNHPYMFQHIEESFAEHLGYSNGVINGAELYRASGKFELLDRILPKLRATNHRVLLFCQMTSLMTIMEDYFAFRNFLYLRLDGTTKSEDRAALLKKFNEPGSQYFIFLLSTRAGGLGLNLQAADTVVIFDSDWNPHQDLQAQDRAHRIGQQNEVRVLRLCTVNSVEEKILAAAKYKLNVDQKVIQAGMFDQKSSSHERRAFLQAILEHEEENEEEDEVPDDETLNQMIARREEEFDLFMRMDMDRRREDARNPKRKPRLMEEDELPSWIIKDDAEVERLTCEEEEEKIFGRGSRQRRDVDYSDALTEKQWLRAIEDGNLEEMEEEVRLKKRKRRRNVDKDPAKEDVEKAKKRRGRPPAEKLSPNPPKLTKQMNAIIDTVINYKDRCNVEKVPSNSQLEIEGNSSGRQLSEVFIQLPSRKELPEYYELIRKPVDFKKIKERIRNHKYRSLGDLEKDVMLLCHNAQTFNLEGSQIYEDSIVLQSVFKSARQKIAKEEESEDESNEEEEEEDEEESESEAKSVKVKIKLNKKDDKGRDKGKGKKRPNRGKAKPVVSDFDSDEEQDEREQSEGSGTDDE
T2 sequence (P51532 whole entry): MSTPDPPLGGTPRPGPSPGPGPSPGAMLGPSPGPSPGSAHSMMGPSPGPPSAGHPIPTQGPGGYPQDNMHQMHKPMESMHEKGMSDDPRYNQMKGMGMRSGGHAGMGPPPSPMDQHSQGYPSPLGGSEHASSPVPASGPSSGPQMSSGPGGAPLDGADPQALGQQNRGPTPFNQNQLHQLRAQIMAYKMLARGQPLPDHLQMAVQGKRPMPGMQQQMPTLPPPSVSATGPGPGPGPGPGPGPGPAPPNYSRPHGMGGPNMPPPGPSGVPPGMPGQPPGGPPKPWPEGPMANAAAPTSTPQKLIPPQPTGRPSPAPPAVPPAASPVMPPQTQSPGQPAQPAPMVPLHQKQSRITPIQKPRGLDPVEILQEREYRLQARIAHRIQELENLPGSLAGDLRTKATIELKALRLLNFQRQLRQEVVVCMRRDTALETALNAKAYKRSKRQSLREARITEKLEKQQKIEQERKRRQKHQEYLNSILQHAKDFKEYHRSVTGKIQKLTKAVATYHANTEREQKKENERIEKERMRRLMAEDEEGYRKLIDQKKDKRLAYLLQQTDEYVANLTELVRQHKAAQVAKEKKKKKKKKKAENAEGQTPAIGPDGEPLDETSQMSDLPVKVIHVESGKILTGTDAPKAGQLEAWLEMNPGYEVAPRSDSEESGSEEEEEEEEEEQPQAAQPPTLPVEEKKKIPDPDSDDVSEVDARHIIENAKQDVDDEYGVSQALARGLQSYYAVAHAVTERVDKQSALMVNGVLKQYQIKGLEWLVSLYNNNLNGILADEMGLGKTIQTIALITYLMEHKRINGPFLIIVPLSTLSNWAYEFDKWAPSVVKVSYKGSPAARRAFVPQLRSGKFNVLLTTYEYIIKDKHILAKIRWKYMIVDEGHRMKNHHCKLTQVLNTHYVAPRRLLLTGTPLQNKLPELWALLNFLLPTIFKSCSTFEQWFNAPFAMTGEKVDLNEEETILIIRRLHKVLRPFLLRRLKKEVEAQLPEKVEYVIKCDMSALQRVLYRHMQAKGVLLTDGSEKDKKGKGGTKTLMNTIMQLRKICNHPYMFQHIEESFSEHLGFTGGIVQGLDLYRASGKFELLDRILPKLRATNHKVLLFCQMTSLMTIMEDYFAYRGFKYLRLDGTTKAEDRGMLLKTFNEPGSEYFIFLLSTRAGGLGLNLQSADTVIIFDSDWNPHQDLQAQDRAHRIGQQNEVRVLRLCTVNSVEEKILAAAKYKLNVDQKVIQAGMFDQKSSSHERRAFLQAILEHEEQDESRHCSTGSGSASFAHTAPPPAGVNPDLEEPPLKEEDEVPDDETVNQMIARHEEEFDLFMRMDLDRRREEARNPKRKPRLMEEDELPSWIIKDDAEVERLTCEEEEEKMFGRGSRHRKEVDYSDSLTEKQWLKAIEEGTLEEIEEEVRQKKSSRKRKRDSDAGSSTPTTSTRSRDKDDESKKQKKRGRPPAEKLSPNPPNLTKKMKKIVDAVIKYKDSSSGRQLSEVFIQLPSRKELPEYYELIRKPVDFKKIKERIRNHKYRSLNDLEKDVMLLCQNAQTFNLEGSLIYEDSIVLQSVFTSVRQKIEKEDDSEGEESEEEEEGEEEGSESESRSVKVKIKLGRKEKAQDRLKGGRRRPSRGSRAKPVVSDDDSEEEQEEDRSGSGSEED

| SMILES | Ratio (BRG1 IC50 (μM) divided by BRM IC50 (μM)) (BRM) | IC50 (BRM) | IC50 (BRG-1) |
| --- | --- | --- | --- |
| COc1nc(C)ccc1-c1ccc2cnc(CNC(=O)c3cc(F)c4c(c3)S(=O)(=O)[C@@H](F)CCO4)cc2n1 [Compound 245] | 17.91 | 7.8 nM | 166 nM |
| COc1nc([C@@](C)(F)C(F)F)ccc1-c1ccc2cnc(CNC(=O)c3cc(F)c4c(c3)S(=O)(=O)[C@@H](F)COC4)cc2n1 [Compound 251] | 15.83 | 8 nM | 126 nM |
| O=C(NCc1cc2nc(-c3cccc(C4CC4)n3)ccc2cn1)c1cc(F)c2c(c1)S(=O)(=O)[C@@H](F)CCO2 [Compound 252] | 23.94 | 8 nM | 219 nM |
| O=C(NCc1cc2nc(-c3cccc([C@@H]4CC4(F)F)n3)ccc2cn1)c1cc(F)c2c(c1)S(=O)(=O)[C@@H](F)COC2 [Compound 253] | 22.99 | 8 nM | 171 nM |
| C[C@@H]1CN(c2cccc(-c3ccc4cnc(CNC(=O)c5cc(Br)c6c(c5)S(=O)(=O)[C@@H](F)CCO6)cc4n3)n2)C[C@H](C)O1 [Compound 255] | 23.96 | 8.1 nM | 207 nM |
| CCn1ccc2c(-c3ccc4cnc(CNC(=O)c5cc(F)c6c(c5)S(=O)(=O)[C@@H](F)CCO6)cc4n3)ccnc21 [Compound 256] | 13.83 | 8.1 nM | 112 nM |
| COc1nc([C@@H](C)F)ccc1-c1ccc2cnc(CNC(=O)c3cc(F)c4c(c3)S(=O)(=O)[C@@H](F)CCO4)cc2n1 [Compound 259] | 27.15 | 8.3 nM | 274 nM |
| C[C@H](NC(=O)c1cc(F)c2c(c1)S(=O)(=O)[C@@H](F)COC2)c1cc2nc(N3CCOc4ccc(C(F)F)nc43)ccc2cn1 [Compound 260] | 34.05 | 8.5 nM | 288 nM |
| O=C(NCc1cc2nc(N3CCCc4c(OC5CC5)ncc(F)c43)ccc2cn1)c1cc(F)c2c(c1)S(=O)(=O)[C@@H](F)CCO2 [Compound 262] | 19.49 | 8.5 nM | 166 nM |
| COc1cc(F)ccc1-c1ccc2cnc(CNC(=O)c3cc(F)c4c(c3)S(=O)(=O)[C@@H](F)CCO4)cc2n1 [Compound 266] | 18.84 | 8.7 nM | 154 nM |
| Cc1cc2c(-c3ccc4cnc(CNC(=O)c5cc(F)c6c(c5)S(=O)(=O)[C@@H](F)CCO6)cc4n3)ccnc2n1C [Compound 267] | 10.49 | 8.8 nM | 91.8 nM |
| O=C(NCc1cc2cc(-c3cccc([C@@H]4CC4(F)F)n3)ccc2cn1)c1cc(F)c2c(c1)S(=O)(=O)[C@@H](F)CCO2 [Compound 268] | 22.51 | 8.8 nM | 199 nM |
| COc1cccc(-c2ccc3cnc(CNC(=O)c4cc(F)c5c(c4)S(=O)(=O)[C@@H](F)COC5)cc3n2)n1 [Compound 270] | 22.02 | 8.9 nM | 174 nM |
| COCCOc1cnc2c(c1)CCCN2c1ccc2cnc(CNC(=O)c3cc(F)c4c(c3)S(=O)(=O)[C@@H](F)CCO4)cc2n1 [Compound 271] | 29.78 | 8.9 nM | 294 nM |
| COCC1(c2cccc(-c3ccc4cnc(CNC(=O)c5cc(F)c6c(c5)S(=O)(=O)[C@@H](F)CCO6)cc4n3)n2)CC1 [Compound 275] | 14.02 | 9.1 nM | 128 nM |

Second part, the molecule after the results:

| Ratio (BRG1 IC50 (μM) divided by BRM IC50 (μM)) (BRM) | IC50 (BRM) | IC50 (BRG-1) | SMILES |
| --- | --- | --- | --- |
| 19.83 | 7.6 nM | 185 nM | C[C@H](NC(=O)c1cc(F)c2c(c1)S(=O)(=O)[C@@H](F)CCO2)c1cc2nc(N3CCOc4cc(C5CC5)cnc43)ccc2cn1 [Compound 240] |
| 25.74 | 7.8 nM | 245 nM | O=C(NCc1cc2nc(N3CCOc4cc(N5CC(F)(F)C5)cnc43)ccc2cn1)c1cc(F)c2c(c1)S(=O)(=O)[C@@H](F)CCO2 [Compound 244] |
| 23.74 | 7.8 nM | 217 nM | O=C(NCc1cc2nc(N3CCOc4ccc(N5CC(F)C5)nc43)ccc2cn1)c1cc(F)c2c(c1)S(=O)(=O)[C@@H](F)CCO2 [Compound 246] |
| 13.39 | 7.8 nM | 98.5 nM | CCOc1cnc2c(c1)OCCN2c1ccc2cnc(CNC(=O)c3cc(F)c4c(c3)S(=O)(=O)[C@@H](F)CCO4)cc2n1 [Compound 247] |
| 16.34 | 7.8 nM | 128 nM | O=C(NCc1cc2nc(N3CCOc4cc(N5CC(CF)C5)cnc43)ccc2cn1)c1cc(F)c2c(c1)S(=O)(=O)[C@@H](F)CCO2 [Compound 248] |
| 26.90 | 8 nM | 220 nM | O=C(NCc1cc2nc(-c3cccc([C@H]4CC4(F)F)n3)ccc2cn1)c1cc(F)c2c(c1)S(=O)(=O)[C@@H](F)CCO2 [Compound 250] |
| 21.58 | 8 nM | 190 nM | O=C(NCc1cc2nc(N3CCOc4ccc(N5CC(F)(F)C5)nc43)ccc2cn1)c1cc(F)c2c(c1)S(=O)(=O)[C@@H](F)CCO2 [Compound 254] |
| 25.34 | 8.5 nM | 242 nM | C[C@H](NC(=O)c1cc(F)c2c(c1)S(=O)(=O)[C@@H](F)CCO2)c1cc2nc(N3CCOc4cc(N5CCC5)cnc43)ccc2cn1 [Compound 261] |
| 10.51 | 8.5 nM | 89.7 nM | CC1CN(c2ccnc3c2OCCN3c2ccc3cnc(CNC(=O)c4cc(F)c5c(c4)S(=O)(=O)[C@@H](F)CCO5)cc3n2)C1 [Compound 263] |
| 11.56 | 8.7 nM | 101 nM | O=C(NCc1cc2nc(N3CCOc4cc(C(F)(F)F)cnc43)ccc2cn1)c1cc(F)c2c(c1)S(=O)(=O)[C@@H](F)CCO2 [Compound 265] |
| 11.77 | 8.9 nM | 110 nM | C[C@H]1N(c2cnc3c(c2)OCCN3c2ccc3cnc(CNC(=O)c4cc(F)c5c(c4)S(=O)(=O)[C@@H](F)CCO5)cc3n2)CC1(F)F [Compound 269] |
| 23.60 | 8.9 nM | 199 nM | O=C(NCc1cc2nc(N3CCCc4ccc(C(F)F)nc43)ccc2cn1)c1cc(Cl)c2c(c1)S(=O)(=O)[C@@H](F)CCO2 [Compound 272] |
| 23.61 | 8.9 nM | 210 nM | COc1ccc(-c2ccc3cnc(CNC(=O)c4cc(F)c5c(c4)S(=O)(=O)[C@@H](F)CCO5)cc3n2)nc1[C@@H]1CC1(F)F [Compound 273] |
| 22.22 | 8.9 nM | 192 nM | C[C@@H](F)c1cnc2c(c1)OCCN2c1ccc2cnc(CNC(=O)c3cc(F)c4c(c3)S(=O)(=O)[C@@H](F)CCO4)cc2n1 [Compound 274] |
| 14.41 | 9.1 nM | 132 nM | O=C(NCc1cc2nc(N3CCOc4cc(N5CC6CC6C5)cnc43)ccc2cn1)c1cc(F)c2c(c1)S(=O)(=O)[C@@H](F)CCO2 (stereo partly drawn) [Compound 276] |
